Where two headings read alike, the source gives them in different places.
Columns and labels:
[1] = target: RT DNA polymerase activity (Human immunodeficiency virus type 1 group M subtype B, UniProt P04585); assay: RT RNA-dependent DNA polymerase activity; format: biochemical, HIV-1
[2] = target: RT-RNase H; details: read-out: IC50, RT-RNase H, cited from earlier work
[3] = system: RT-RNase H; assay: RT-RNase H inhibition of other RNHIs; format: biochemical, HIV-1
[4] = read-out: In vitro IC50 RT DNA pol, pH 7.4, 1 mM Mg2+

## O=C(O)Cc1cc(=O)oc2c(O)c(O)ccc12 [Compound F3284-8495, (7,8-dihydroxy-2-oxo-2H-chromen-4-yl)acetic acid]
[1]
  IC50: > 10000 nM
[1]; at 10 µM, the highest concentration tested
  Inhibition of RT DNA polymerase activity: no detectable inhibition

## O=c1cc(CN2CCN(C(c3ccccc3)c3ccccc3)CC2)c2ccc(O)c(O)c2o1 [Compound F3385-2581]
[1]; [4]
  IC50: 2200 nM

## COc1ccc(N2CCN(Cc3cc(=O)oc4c(O)c(O)ccc34)CC2)cc1.Cl.Cl [Compound F3385-2588]
[1]
  Inhibition of the DNA polymerase activity of RT (in words): did not inhibit
[1]; [4]
  IC50: > 10000 nM

## O=c1cc(CN2CCN(c3cccc(Cl)c3)CC2)c2ccc(O)c(O)c2o1 [Compound F3385-2590]
[1]; [4]
  IC50: 2500 nM

## CC(C)c1ccc(O)c(=O)c(O)c1 [β-Thujaplicinol, β-thujaplicinol]
[2]; 31
  IC50: 210 nM
[3]
  Fold greater activity than F3284-8495 against the RNase H of full-length RT: greater than 20 fold

## manicol
[2]
  IC50: 600 nM
